Values after ≈ are worked out from the molar mass of the structure shown. Like-named read-outs stand apart in the source and are kept apart here.
Assays:
Assay type in all cases: cell-based
[1] = system: STREPTOCOCCUS PYOGENES 2548 INDUC; assay: In vitro antibacterial activity, agar dilution MIC; details: S. pyogenes 2548 INDUC, BHI agar, 35-37° C., 20 to 24 hours, read-out: MIC
ESCHERICHIA COLI DC-2 = assay: In vitro antibacterial activity, agar dilution MIC; details: E. coli DC-2, BHI agar, 35-37° C., 20 to 24 hours, read-out: MIC
STAPHYLOCOCCUS AUREUS 45 = assay: In vitro antibacterial activity, agar dilution MIC
[2] = system: PROVIDENCIA STUARTII CMX 640; assay: microbe, parasite or virus in culture; details: P. stuartii CMX 640, BHI agar, 35-37° C., 20 to 24 hours
[3] = system: STAPHYLOCOCCUS AUREUS ATCC 6538P; assay: In vitro antibacterial activity, agar dilution MIC; details: ATCC6538P, 24 h
[4] = system: STAPHYLOCOCCUS AUREUS NCTC 10649; assay: In vitro antibacterial activity, agar dilution MIC
PSEUDOMONAS CEPACIA 296I = assay: In vitro antibacterial activity, agar dilution MIC; details: Burkholderia cepacia
[5] = system: PSEUDOMONAS AERUGINOSA A5007; assay: In vitro antibacterial activity, agar dilution MIC; details: P. aeruginosa A5007, BHI agar, 35-37° C., 20 to 24 hours
[6] = system: STAPHYLOCOCCUS AUREUS 642A; assay: In vitro antibacterial activity, agar dilution MIC; details: 24 h
STR[…] 508 = assay: In vitro antibacterial activity, agar dilution MIC; details: Streptococcus agalactiae, 24 h
Experimental: (§1) Representative compounds of the present invention were assayed in vitro for antibacterial activity as follows: Twelve petri dishes containing successive aqueous dilutions of the test compound mixed with 10 ml of sterilized Brain Heart Infusion (BHI) agar (Difco 0418-01-5) were prepared. Each plate was inoculated with 1:100 (or 1:10 for slow-growing strains, such as Micrococcus and Streptococcus) dilutions of up to 32 different microorganisms, using a Steers replicator block. The inoculated plates were incubated at 35°-37° C. for 20 to 24 hours. In addition, a control plate, using BHI agar containing no test compound, was prepared and incubated at the beginning and end of each test.
(§2) An additional plate containing a compound having known susceptibility patterns for the organisms being tested and belonging to the same antibiotic class as the test compound was also prepared and incubated as a further control, as well as to provide test-to-test comparability. Erythromycin A was used for this purpose.
(§3) After incubation, each disk was read. The minimum inhibitory concentration (MIC) was defined as the lowest concentration of drug yielding no growth, a slight haze, or sparsely isolated colonies on the inoculum spot as compared to the growth control.

STR[…] EES61 = assay: In vitro antibacterial activity, agar dilution MIC; details: Streptococcus pyogenes, 24 h
Experimental: as §1, §2, §3

[7] = system: STREPTOCOCCUS BOVIS A5169; assay: In vitro antibacterial activity, agar dilution MIC; details: S. bovis A5169; BHI agar, 35-37° C., 20 to 24 hours; read-out: MIC
[8] = system: STAPHYLOCOCCUS EPIDERMIDIS 3519; assay: microbe, parasite or virus in culture; details: S. epidermidis 3519, BHI agar, 35-37° C., 20 to 24 hours, read-out: MIC
[9] = system: STAPHYLOCOCCUS AUREUS 1775; assay: In vitro antibacterial activity, agar dilution MIC
[10] = system: KLEBSIELLA PNEUMONIAE ATCC 8045; assay: In vitro antibacterial activity, agar dilution MIC; details: ATCC8045, K. pneumoniae ATCC 8045, BHI agar, 35-37° C., 20 to 24 hours, read-out: MIC
ESCHERICHIA COLI H560 = assay: In vitro antibacterial activity, agar dilution MIC; details: E. coli H560, BHI agar, 35-37° C., 20 to 24 hours, read-out: MIC
[11] = system: STREPTOCOCCUS PYOGENES 930 CONST; assay: In vitro antibacterial activity, agar dilution MIC; details: 24 h
[12] = system: STAPHYLOCOCCUS AUREUS CMX 553; assay: In vitro antibacterial activity, agar dilution MIC
[13] = system: PSEUDOMONAS AERUGINOSA K799/WT; assay: In vitro antibacterial activity, agar dilution MIC; details: P. aeruginosa K799/WT, BHI agar, 35-37° C., 20 to 24 hours
[14] = system: PSEUDOMONAS AERUGINOSA BMH10; assay: In vitro antibacterial activity, agar dilution MIC; details: P. aeruginosa BMH10, BHI agar, 35-37° C., 20 to 24 hours, read-out: MIC
[15] = system: PSEUDOMONAS AERUGINOSA K799/61; assay: In vitro antibacterial activity, agar dilution MIC; details: 24 h
Experimental: as §1, §2
as §3, with “control. The results of this assay, shown below in Tables 1 and 2, support the conclusion that the compounds of the invention are effective antibacterial agents.” for “control.”

M[…] ATCC 4698 = assay: In vitro antibacterial activity, agar dilution MIC; details: Micrococcus luteus, ATCC4698, 24 h
Experimental: as §1, §2
as §3, with “control. The results of this assay, shown below in Tables 1 and 2, support the conclusion that the compounds of the invention are effective antibacterial agents.” for “control.”

M[…] ATCC 9341 = assay: In vitro antibacterial activity, agar dilution MIC; details: Micrococcus luteus, ATCC9341, 24 h
Experimental: as §1, §2
as §3, with “control. The results of this assay, shown below in Tables 1 and 2, support the conclusion that the compounds of the invention are effective antibacterial agents.” for “control.”

EN[…] ATCC 8043 = assay: In vitro antibacterial activity, agar dilution MIC; details: Enterococcus faecium, ATCC8043, 24 h
Experimental: as §1, §2
as §3, with “control. The results of this assay, shown below in Tables 1 and 2, support the conclusion that the compounds of the invention are effective antibacterial agents.” for “control.”

ESCHERICHIA COLI JUHL = assay: microbe, parasite or virus in culture
[16] = system: STAPHYLOCOCCUS AUREUS A5177; assay: In vitro antibacterial activity, agar dilution MIC; details: S. aureus A5177, BHI agar, 35-37° C., 20 to 24 hours, read-out: MIC
ESCHERICHIA COLI KNK 437 = assay: microbe, parasite or virus in culture
[17] = system: ENTEROBACTER AEROGENES ATCC 13048; assay: In vitro antibacterial activity, agar dilution MIC; details: Klebsiella aerogenes, ATCC13048; E. aerogenes ATCC 13048; BHI agar, 35-37° C., 20 to 24 hours; read-out: MIC
ESCHERICHIA COLI SS = assay: In vitro antibacterial activity, agar dilution MIC; details: E. coli SS, BHI agar, 35-37° C., 20 to 24 hours, read-out: MIC
[18] = system: ACINETOBACTER CALCOACETICUS CMX 669; assay: In vitro antibacterial activity, agar dilution MIC; details: A. calcoaceticus CMX 669, BHI agar, 35-37° C., 20 to 24 hours

Structure (SMILES)	MIC [1] [µg/mL]	MIC (ESCHERICHIA COLI DC-2) [µg/mL]	MIC [2] [µg/mL]	MIC [3] [µg/mL]	MIC [5] [µg/mL]	MIC [6] [µg/mL]	MIC (STR[…] 508) [µg/mL]	MIC (STR[…] EES61) [µg/mL]	MIC [7] [µg/mL]	MIC [8] [µg/mL]	MIC [10] [µg/mL]	MIC (ESCHERICHIA COLI H560) [µg/mL]	MIC [11] [µg/mL]	MIC [13] [µg/mL]	MIC [14] [µg/mL]	MIC [15] [µg/mL]	MIC (M[…] ATCC 4698) [µg/mL]	MIC (M[…] ATCC 9341) [µg/mL]	MIC (EN[…] ATCC 8043) [µg/mL]	MIC [16] [µg/mL]	also measured
CC[C@H]1OC(=O)[C@H](C)[C@@H](O[C@H]2C[C@@](C)(OC)[C@@H](O)[C@H](C)O2)[C@H](C)[C@@H](O[C@@H]2O[C@H](C)C[C@H](N(C)C)[C@H]2O)[C@](C)(O)C[C@@H](C)[C@@H](N)[C@H](C)[C@@H](O)[C@@]1(O)CN [Compound 15, (9R)-9,21-diamino-9-deoxo-erythromycin A]	> 100	3.1 (≈ 4.13 µM)	> 100	25 (≈ 33.3 µM)	> 100	12.5 (≈ 16.7 µM)	12.5 (≈ 16.7 µM)	25 (≈ 33.3 µM)	100 (≈ 133 µM)	> 100	> 100	> 100	12.5 (≈ 16.7 µM)	> 100	> 100	> 100	12.5 (≈ 16.7 µM)	50 (≈ 66.7 µM)	12.5 (≈ 16.7 µM)	> 100	MIC (STAPHYLOCOCCUS AUREUS 45; S. aureus 45, BHI agar, 35-37° C., 20 to 24 hours, read-out: MIC): 100 µg/mL (≈ 133 µM); MIC ([4]; NCTC10649, S. aureus NCTC 10649, BHI agar, 35-37° C., 20 to 24 hours, read-out: MIC): 100 µg/mL (≈ 133 µM); MIC (PSEUDOMONAS CEPACIA 296I; P. cepacia 296I, BHI agar, 35-37° C., 20 to 24 hours, read-out: MIC): 100 µg/mL (≈ 133 µM); MIC ([9]; S. aureus 1775, BHI agar, 35-37° C., 20 to 24 hours, read-out: MIC): 100 µg/mL (≈ 133 µM); MIC ([12]; S. aureus CMX 553, BHI agar, 35-37° C., 20 to 24 hours, read-out: MIC): 100 µg/mL (≈ 133 µM); MIC (ESCHERICHIA COLI JUHL; E. coli JUHL, BHI agar, 35-37° C., 20 to 24 hours, read-out: MIC): 100 µg/mL (≈ 133 µM); MIC (ESCHERICHIA COLI KNK 437; E. coli KNK 437, BHI agar, 35-37° C., 20 to 24 hours): 100 µg/mL (≈ 133 µM); MIC [17]: > 100 µg/mL; MIC (ESCHERICHIA COLI SS): > 100 µg/mL; MIC [18]: > 100 µg/mL
CC[C@H]1OC(=O)[C@H](C)[C@@H](O[C@H]2C[C@@](C)(OC)[C@@H](O)[C@H](C)O2)[C@H](C)[C@@H](O[C@@H]2O[C@H](C)C[C@H](N(C)C)[C@H]2O)[C@](C)(O)C[C@@H](C)[C@@H](N(C)C)[C@H](C)[C@@H](O)[C@@]1(O)CN(C)Cc1ccccc1 [Compound 16, (9R)-21-(N-benzyl-N-methylamino)-9-deoxo-9-(N,N-dimethylamino)-erythromycinA]	50 (≈ 56.7 µM)	1.56 (≈ 1.77 µM)	100 (≈ 113 µM)	12.5 (≈ 14.2 µM)	100 (≈ 113 µM)	3.1 (≈ 3.51 µM)	0.1 (≈ 0.113 µM)	0.39 (≈ 0.442 µM)	1.56 (≈ 1.77 µM)	> 100	> 100	100 (≈ 113 µM)	0.78 (≈ 0.884 µM)	> 100	> 100	> 100	0.39 (≈ 0.442 µM)	6.2 (≈ 7.03 µM)	3.1 (≈ 3.51 µM)	> 100	MIC (STAPHYLOCOCCUS AUREUS 45; 24 h): 6.2 µg/mL (≈ 7.03 µM); MIC ([4]; NCTC10649, 24 h): 12.5 µg/mL (≈ 14.2 µM); MIC (PSEUDOMONAS CEPACIA 296I; 24 h): 12.5 µg/mL (≈ 14.2 µM); MIC ([9]; 24 h): 12.5 µg/mL (≈ 14.2 µM); MIC ([12]; 24 h): 12.5 µg/mL (≈ 14.2 µM); MIC (ESCHERICHIA COLI JUHL; 24 h): 12.5 µg/mL (≈ 14.2 µM); MIC (ESCHERICHIA COLI KNK 437; 24 h): 50 µg/mL (≈ 56.7 µM); MIC [17]: 100 µg/mL (≈ 113 µM); MIC (ESCHERICHIA COLI SS): 100 µg/mL (≈ 113 µM); MIC [18]: > 100 µg/mL
